# Laboratory results: PubChem BioAssay (NCI)
#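 Five concentrations, 48 hours, 96-well plates. GI50: concentration for 50% inhibition of growth. Definition used: TGI = concentration required for complete inhibition of growth.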
# How the values were obtained:
# Assay in all cases: NCI tumour cell line growth inhibition, 48 h
# [1] = system: HT29 colon
# [2] = system: CAKI-1 renal
# [3] = system: NCI-H522 lung
# [4] = system: 786-0 renal
# [5] = system: T-47D breast
# [6] = system: SF-295 CNS
# [7] = system: OVCAR-5 ovarian
# [8] = system: ACHN renal
# [9] = system: KM12 colon
# [10] = system: SR leukemia
Compound,TGI [1] [µM],TGI [2] [µM],TGI [3] [µM],TGI [4] [µM],TGI [5] [µM],TGI [6] [µM],TGI [7] [µM],TGI [8] [µM],TGI [9] [µM],TGI [10] [µM],GI50 [1] [µM],GI50 [2] [µM],GI50 [3] [µM],GI50 [4] [µM],GI50 [5] [µM],GI50 [6] [µM],GI50 [7] [µM],GI50 [8] [µM],GI50 [9] [µM],GI50 [10] [µM]
NC(N)=N/N=C/c1cc(Cl)cc(Cl)c1O,> 100,> 100,> 100,> 100,> 100,> 100,> 100,> 100,> 100,,,,,,,,,,,
CN=NN(C)C(=O)NC,> 100,> 100,> 100,> 100,,> 100,> 100,> 100,> 100,> 100,,,,,,,,,,
COc1ccc(C(=O)C(CO)Oc2ccccc2OC)cc1OC (centres undefined),> 100,> 100,> 100,> 100,,> 100,> 100,> 100,> 100,,,,,,,,,,,
COc1cc(/C=C2\C(=O)Nc3ccc(F)cc32)cc(OC)c1OC,> 100,> 100,> 100,> 100,> 100,> 100,> 100,> 100,> 100,,24.8,15.8,22.8,31.2,7.2,> 100,> 100,50,26.2,
COC(=O)/C=C/C1C(C(=O)OC)C2(C(=O)OC)CCC1(C(=O)OC)N2 (centres undefined),> 100,> 100,> 100,> 100,,> 100,> 100,> 100,> 100,> 100,,,,,,,,,,
Cc1n(Cc2ccc3ccccc3c2)cc[n+]1Cc1ccc2ccccc2c1,3.02,,1.81,8.52,5.12,7.21,5.81,23.8,2.04,2.47,0.521,,0.256,2.25,0.438,1.83,1.5,10.9,0.592,0.552
CC1=C(C(=O)Nc2c(C)cccc2C)C(c2ccccc2Cl)C(C(=O)Nc2c(C)cccc2C)=C(C)N1,> 100,> 100,> 100,> 100,,> 100,> 100,> 100,> 100,,,,,,,,,,,
c1ccc2c3ccn4cc5c(cc4c-3nc2c1)CCCC5,13,> 100,5.75,13.5,15,10.5,19.3,17.5,8.59,,2.55,34.9,,3.46,3.27,2.37,4.49,4.75,,
N#C/C(=C\c1ccc(O)c(O)c1)C(N)=O,> 100,> 100,53.3,> 100,,> 100,> 100,> 100,> 100,,,,,,,,,,,
CN(C)Cc1c[nH]c2c1C(=O)c1c(c(O)c3ccccc3c1O)C2=O,> 100,23.9,35.4,33.6,> 100,17.1,27.3,20.1,20.9,,16.7,10.8,12.6,10.5,11.4,3.22,14.3,7.08,4.66,
CCCCCCCCCc1cc(=O)c2c(O)cccc2o1,> 10,> 100,> 100,> 100,,> 100,> 100,> 100,> 100,> 100,,,,,,,,,,
O=C(CSc1nnc(-c2ccccc2NC(=O)C(F)(F)F)c(=O)[nH]1)NC(=O)Nc1ccccc1,> 100,> 100,> 100,> 100,,> 100,> 100,,> 100,> 100,,,,,,,,,,
COc1ccc(-c2cc(-c3cccn3C)c(C#N)c(N)n2)cc1OC,> 100,> 100,> 100,> 100,> 100,> 100,> 100,> 100,> 100,,> 100,> 100,40.4,> 100,> 100,> 100,> 100,> 100,> 100,
CC(=O)OCC1OC([S-])C(OC(C)=O)C(OC(C)=O)C1OC(C)=O.CC[PH+](CC)CC.CC[PH+](CC)CC.[Au].[Au] (centres undefined),0.989,0.987,,0.401,,1.63,2.96,2.38,2.66,,0.319,0.292,,0.185,,0.436,1.59,1.01,1.04,
CCOC(=O)C1N(S(=O)(=O)c2ccc(C)cc2)CCC12C(c1ccc(OC)cc1)NC1CCCCC12 (centres undefined),> 100,> 100,> 100,> 100,,> 100,> 100,> 100,> 100,,,,,,,,,,,
CCOC(=O)[C@H](CCCNC(=O)OC(C)(C)C)NCc1ccc(OC)c(OC)c1,> 100,> 100,> 100,> 100,,> 100,> 100,> 100,> 100,> 100,,,,,,,,,,
N#CC(/C(=N/NC(=O)C(=O)NN)C(=O)NC12CC3CC(CC(C3)C1)C2)c1ccccc1 (centres undefined),> 100,> 100,> 100,> 100,,> 100,> 100,> 100,> 100,> 100,,,,,,,,,,
CC(C)(C)N1CC2(CCCCC2)C1=O,> 100,> 100,> 100,> 100,,> 100,> 100,> 100,> 100,> 100,,,,,,,,,,
COc1ccccc1/C=C/c1cnccn1,> 10,> 10,> 10,> 10,> 10,> 10,> 10,> 10,> 10,,,,,,,,,,,
COc1c(C)c2c(c(C)c1Cl)Oc1c(C=O)c(O)c(Cl)c(C)c1C(=O)O2,> 100,> 100,96.4,> 100,,> 100,78.8,69.7,> 100,89.4,,,,,,,,,,

Compound,TGI [1] [µM],TGI [2] [µM],TGI [3] [µM],TGI [4] [µM],TGI [5] [µM],TGI [6] [µM],TGI [7] [µM],TGI [8] [µM],TGI [9] [µM],TGI [10] [µM],GI50 [1] [µM],GI50 [2] [µM],GI50 [3] [µM],GI50 [4] [µM],GI50 [5] [µM],GI50 [6] [µM],GI50 [7] [µM],GI50 [8] [µM],GI50 [9] [µM],GI50 [10] [µM]
Cc1cccc(NC(=O)/C=C/c2ccc(N(CCC#N)CCC#N)cc2C)c1,> 100,> 100,> 100,> 100,,> 100,> 100,> 100,> 100,,,,,,,,,,,
C#CC(=O)Nc1cccc(Nc2nc3c(c(NCc4ccccc4)n2)CCCC3)c1,,,< 0.01,< 0.01,3.7,0.0361,,< 0.0317,0.337,,,,< 0.01,< 0.01,0.964,0.0152,,< 0.0113,0.0225,
O=C(/C=C/c1c(O)ccc2ccccc12)c1ccc2ccccc2c1,> 100,> 100,> 100,> 100,,> 100,> 100,> 100,> 100,,,,,,,,,,,
O=C(CCC(=O)Nc1cccc(Cl)c1)CC(=O)c1ccc(Cl)cc1,> 100,> 100,> 100,> 100,,> 100,> 100,> 100,> 100,> 100,,,,,,,,,,
O=C(Nc1ccc([N+](=O)[O-])cc1)C1C(=O)C(=O)N(c2ccc([N+](=O)[O-])cc2)C1=O (centres undefined),> 100,> 100,> 100,> 100,,> 100,> 100,> 100,> 100,> 100,,,,,,,,,,
CCOC(=O)c1[nH]c(COC(C)=O)c(CCCOC(C)=O)c1CCCOC(C)=O,> 100,> 100,52.5,> 100,,> 100,> 100,> 100,> 100,> 100,,,,,,,,,,
OCCCCC#Cc1ccccc1C#Cc1cccc(O)c1,31.8,33.6,28.9,29.2,34.7,41.7,32.1,41.6,41.3,,17.1,16.2,14.3,13.8,14.4,21,16.9,19.1,17.1,
COc1ccccc1NC(=O)C1=C(C)NC(C)=C(C(=O)Nc2ccccc2OC)C1c1ccc([N+](=O)[O-])cc1,> 100,> 100,> 100,> 100,,55.9,90.8,> 100,> 100,> 100,,,,,,,,,,
CCOC(=O)CCc1c(C)c2c(OC(C)=O)cc(OC(C)=O)cc2oc1=O,> 100,> 100,> 100,> 100,,> 100,> 100,> 100,> 100,,,,,,,,,,,
O=C1CSC(Cc2nc3ccccc3[nH]2)=N1,> 100,31.4,40.4,32.6,,63.3,57.5,9.79,> 64.1,25.6,,,,,,,,,,
CSC1(CC(=O)N(C)C)C(=O)Nc2ccccc21 (centres undefined),> 100,,,> 100,> 100,> 100,> 100,> 100,> 100,> 100,,,,,,,,,,
O=[N+]([O-])c1ccc(-n2nnc(C3=NCCCN3)c2-c2ccc(Cl)cc2)cc1,> 100,> 100,> 100,> 100,,> 100,> 100,> 100,> 100,> 100,,,,,,,,,,
O=C(CCC/C(CC(=O)c1ccc(Br)cc1)=N\O)Nc1ccccc1,> 100,,,> 100,,> 100,> 100,> 100,> 100,,,,,,,,,,,
COC(=O)C12C3C4C5(C(=O)OC)C(C1C35C(=O)N(C(C)C)C(C)C)C42C(=O)N(C(C)C)C(C)C (centres undefined),> 50,> 50,> 50,> 50,,> 50,> 50,> 50,> 50,> 50,,,,,,,,,,
Cc1cn2c(/C=C3/C(=O)Nc4ccccc43)c(-c3ccc(Cl)cc3)nc2s1,16.2,25.5,19.5,13.6,,17.4,,8.52,23.2,39.8,9.23,12.1,9.01,7.08,,9.22,,2.48,10.5,11.5
COc1cc2c(cc1OC)C13CCN4CC5=CCOC6CC(=O)N2C1C6C5CC43O (centres undefined),> 100,> 100,> 100,> 100,> 100,> 100,> 100,> 100,> 100,,,,,,,,,,,
CC(=O)Oc1ccccc1C(=O)N=C1[Se]CCCN1C(=O)c1ccccc1OC(C)=O,8.73,,3.42,4.21,13.5,,8.66,4.79,,9.17,3.15,,1.59,2.14,3.44,,3.25,2.3,,2.44
NC1CCCC[C@H]1N.N[C@@H]1CCCC[C@@H]1N.O=C(P(=O)([O-])[O-])P(=O)([O-])[O-].[Pt+4].[Pt+4],> 100,> 100,47.4,> 100,,> 100,> 100,> 100,> 100,,70.9,> 100,11.9,> 100,,96.7,> 100,82.2,> 100,
COc1cc2c(cc1OCc1ccccc1)CNCC2,> 100,> 100,> 100,> 100,,> 100,> 100,> 100,> 100,,,,,,,,,,,
CC(C)(C)C(=O)/C=C/c1ccc(Oc2ccccc2)cc1,25,,24.1,40,,> 100,33.8,32.7,33.9,,,,,,,,,,,
